The values that follow come from patent US12214008B2, “Protein interfaces” (SyntheX, Inc., priority 2016, dated 2025).

Entries after “also recorded” stand apart in the source; their conditions may differ. Residues, ends and D or L forms follow the SMILES beside them. Groups on a side chain read outwards from the residue. *: point of attachment. 5FAM = O=C1OC2(c3ccc(O)cc3Oc3cc(O)ccc32)c2ccc(C(=O)*)cc21; Ahx = NCCCCCC(=O)O

Data set [1] has as its system SSP-25 cells. Briefly: growth assay (percent confluence). In kind it is cell-based. Particulars: 5 μM or 10 μM, compared to PBS. On the procedure:
A growth assay was performed using SSP-25 cells with 5 μM or 10 μM of compound 1. […] The experimental protocol described in Example 3 was used for the growth assay.
The same growth assay was repeated using 10 μM of compound 1 and compound 2. Compound 2 contains a single substitution within the core consensus sequence, which interrupts the binding of compound 2 to RAD51.

Data set [2] has as its system SSP-25 cells. Briefly: MTT growth inhibition assay. In kind it is cell-based. Particulars: 5 μM or 10 μM, 48 hours of cell growth, vs water mock. On the procedure:
To assess the growth inhibitory properties of compounds disclosed herein, 5 μM or 10 μM of compounds 1, 3, and 5 were tested against a water mock treatment for growth inhibition of SSP-25 cells using an MTT assay after 48 hours of cell growth.

The test system of another data set is GM08505, Blm cells. Here is the method: To assess the ability of compounds disclosed herein to rescue the drug-sensitivity of Bloom's Syndrome patient cells, GM08505, Blm cells were treated with PBS, 5 μM etoposide, or 5 μM etoposide and 10 μM compound 5.
Data set [3] has as its system SSP-25 cells. Particulars: compound 5 at 5 μM, compound 1 at 10 μM; vs PBS. Here is the method:
(§1) To assess the specificity of compounds disclosed herein in targeting cancers with mutations in the BRCA2 pathway, compounds 1 and 5 were tested against HeLa (human cervical cancer) and SSP-25 cells (cholangiocarcinoma cell line) (FIG. 2). To measure killing of the cells by compounds 1 and 5, a cell stain (CytoTox Red™) was used, which can be measured spectrophotometrically, and is indicative of cell viability. First, 5,000 cells were incubated in 96-well culture plates overnight. The media (RPMI with 10% FBS) was removed and replaced with serum free media (RPMI) containing 125 nM CytoTox Red™. FITC-labeled compounds 5 and 1 were added to concentrations of 5 μM and 10 μM, respectively, and imaging commenced using an IncuCyte™ instrument using 15 minute time points. 2× serum-containing media was added after one hour incubation, and the cells were imaged every 2 hours. To detect CytoTox Red™ the following parameters were used: Excitation Wavelength: 585 nm; Passband: [565,605] nm and Emission Wavelength: 635 nm; Passband: [625, 705] nm. To detect compounds 5 and 1 using the FITC label, the following parameters were used: Excitation Wavelength: 460 nm; Passband: [440,480] nm and Emission Wavelength: 524 nm; Passband: [504,544] nm was used.

Another data set concerns HeLa. Particulars: compound 5 at 5 μM, compound 1 at 10 μM. On the procedure: as §1
In data set [4] the test system is SSP-25 cells. Briefly: xCELLigence cell death assay. Particulars: for rescue of compound 10-induced cell death by ruthenium red: 40 μM Ruthenium red added to cells treated with 10 μM compound 10. Type of data set: cell-based. On the procedure: Further, singly-dosed cells continued to recover, which indicated reduced general cytotoxicity of the compound in the media or the lysed cells.
To optimize cellular activity, compounds were tested in xCELLigence cell death assays against various cell lines. An example of the workflow used is shown using A549 cells and compound 10 in FIGS. 15 and 16. […] Data from xCELLigence traces at different compound concentrations from FIG. 15 was then used to generate a dose-response curve, which was then subjected to nonlinear regression using a sigmoidal dose-response model to generate IC50s and R2 values for cell death for each compound/cell line combination (FIG. 16).
To further investigate the hypothesis that peptide binding to RAD51 in cells causes cell death via increases in intracellular free calcium levels, compound 10 alone and in combination with two different intracellular calcium chelators (1,2-Bis(2-aminophenoxy) ethane-N,N,N′,N′-tetraacetic acid tetrakis(acetoxymethyl ester) aka “BAPTA-AM”, and ammoniated ruthenium oxychloride aka “ruthenium red”) was tested in an xCELLigence™ cell death assay as in Example 3. The intracellular calcium chelators alone were also evaluated on the cells.

A further data set addresses T1, RAD51 (Homo sapiens, UniProt Q06609).
T1 sequence (Q06609 1-339): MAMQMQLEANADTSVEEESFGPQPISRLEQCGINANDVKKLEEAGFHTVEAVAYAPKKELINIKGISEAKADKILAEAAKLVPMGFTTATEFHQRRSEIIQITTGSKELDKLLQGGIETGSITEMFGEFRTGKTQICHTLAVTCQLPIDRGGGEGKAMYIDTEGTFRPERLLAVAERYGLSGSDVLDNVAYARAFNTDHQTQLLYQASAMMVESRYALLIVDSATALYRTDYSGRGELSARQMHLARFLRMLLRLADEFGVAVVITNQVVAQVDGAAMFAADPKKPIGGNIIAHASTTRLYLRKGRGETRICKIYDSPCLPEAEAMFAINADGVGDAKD
Briefly: microscale thermophoresis. Type of data set: binding. Particulars: 0 vs 1 mM Ca2+. Here is the method: To test the interaction between calcium binding and peptide binding to RAD51, the Kds of active (Compound 5, 10) peptides for RAD51 were tested by a microscale thermophoresis assay, and the Kd of compound 5 was additionally performed in the presence of 1 mM calcium.
Microscale thermophoresis was performed as previously described (see, for e.g. Jerabek-Willemsen, M., Wienken, C. J., Braun, D., Baaske, P. & Duhr, S. Molecular interaction studies using microscale thermophoresis. Assay Drug Dev. Technol. 9, 342-353 (2011)). The affinity of the Compound was measured using the Monolith NT.115 from Nanotemper Technologies. Rad51 was fluorescently labelled according to the manufacturer's protocol and the labelled protein used for each assay was about 500 nM. A solution of unlabelled peptide was diluted for appropriate serial concentration gradient. The samples were loaded into silica capillaries (Polymicro Technologies). Measurements were performed at room temperature in buffer containing PBS, 0.1% Tween 20, 0.5 mM ATP, 2.5 uM ssDNA, with 1 mM CaCl2 (when mentioned). Measurements were done using 12% LED power and 60% MST power. The assays were repeated three times for each affinity measurement. Data analyses were performed using Nanotemper Analysis software and OriginPro 8.0 software provided by the manufacturer.
On the technique in general: MST reads how a fluorescent partner responds to local heating, with and without ligand.

For a further data set, the system named is PC3 cells. Briefly: xCELLigence cell death assay. Particulars: 60 μM at 24 hours.

Method for PC3 cells: First, 5,000 PC3 cells were plated, and adherence and growth was measured for 24 hours using live measurements of current impedance through the plate using the xCELLigence™ instrument. […] This was repeated again at the 124 hour mark.

For the compound “Ac-K(C6_5FAM)-QSLRLGLSRLARVKRLHPGARRRRRRRR-NH2 (Ac-K(C6_5FAM)QSLRLGLSRLARVKRLHPGARRRRRRRR-NH2) [Compound 1]”, the “percent confluence of SSP-25 cells” value in the data set with SSP-25 cells [1] was “decreased the percent confluence of the cells”. In addition, the “growth inhibition of SSP-25 cells” value in the data set with SSP-25 cells [2] is “dose-dependent effect on the growth of SSP-25”.
For the compound `COc1cc([C@@H]2c3cc4c(cc3[C@@H](O[C@@H]3O[C@@H]5CO[C@@H](C)O[C@H]5[C@H](O)[C@H]3O)[C@H]3COC(=O)[C@H]23)OCO4)cc(OC)c1O` [etoposide, reference compound], in the data set on GM08505, Blm cells (5 μM etoposide alone), the “growth of Blm cells (percent confluence)” value was “growth of the Blm cells was affected”.
Consider `CSCC[C@H](NC(=O)[C@H](CCCNC(=N)N)NC(=O)[C@H](CO)NC(=O)[C@@H](NC(=O)[C@H](CCCNC(=N)N)NC(=O)[C@H](CC(C)C)NC(=O)[C@H](CCCNC(=N)N)NC(=O)[C@@H](NC(=O)CNC(=O)[C@H](CC(C)C)NC(=O)[C@H](CCCNC(=N)N)NC(=O)[C@H](CCCCN)NC(=O)[C@H](CCCNC(=N)N)NC(=O)[C@H](CCCNC(=N)N)NC(=O)[C@H](CCCNC(=N)N)NC(=O)[C@H](CCCNC(=N)N)NC(=O)[C@H](CCCNC(=N)N)NC(=O)[C@H](CCCNC(=N)N)NC(=O)[C@H](CCCNC(=N)N)NC(=O)[C@H](CCCCNC(=O)CCCCCNC(=O)c1ccc2c(c1)C(=O)OC21c2ccc(O)cc2Oc2cc(O)ccc21)NC(C)=O)C(C)C)C(C)C)C(=O)N[C@@H](CC(C)C)C(N)=O` [Compound 5] (Ac-K([Ahx-5FAM])RRRRRRRKRLGVRLRVSRML-NH2), for which the “rescue of etoposide-induced growth defect of Blm cells (percent confluence)” value with GM08505, Blm cells (5 μM etoposide and 10 μM compound 5, comparable to PBS) is reported as “able to rescue the hypersensitivity of a Bloom's cell line (GM08505) to a genotoxic stress (etoposide); also recorded: suppression of cell growth defects induced by etoposide”. The “cell death (CytoTox Red staining) in SSP-25 cells” value in the data set on SSP-25 cells [3] was “greatest efficacy in the SSP-25 cells”. Besides, in the data set on HeLa, the “cell death (CytoTox Red staining) in HeLa cells” value is reported as “little cell death is generated in the HeLa cells compared to the SSP-25 cells”. The “efficacy in acidified media” value with SSP-25 cells [4] (30 μM added at 72 hours to previously untreated cells) is reported as “efficacy of compound 5 in acidified media”. For the same compound, the “cell death kinetics (cell index)” value with SSP-25 cells [4] (30 μM compound 5 added at 20 hours) is “acute cell death kinetics”. The “growth inhibition of SSP-25 cells” value with SSP-25 cells [2] is reported as “strongest inhibitory effect, regardless of concentration”. At RAD51, the “increase of Kd when calcium (Ca2+) raised from 0 to 1 mM” value was 3.4 fold. The “cell death of PC3 cells (cell index)” value with PC3 cells is “acute cell death kinetics; also recorded: highly potent”. Moreover, the PC3 cells eliminated result in the data set on PC3 cells (100 μM more at 84 and 124 hours, compared to compound 6 and PBS controls) is “over 75%”.
With “KQSLRLGLSRLARVKRLHPGARRRRRRRR [Compound 3]”, in the data set with SSP-25 cells [2], the “growth inhibition of SSP-25 cells” value is “dose-dependent effect on the growth of SSP-25”.
Turning to `CC(=O)OCOC(=O)CN(CC(=O)OCOC(C)=O)c1ccccc1OCCOc1ccccc1N(CC(=O)OCOC(C)=O)CC(=O)OCOC(C)=O` [BAPTA-AM, 1,2-Bis(2-aminophenoxy) ethane-N,N,N′,N′-tetraacetic acid tetrakis(acetoxymethyl ester)], the “rescue of compound 10-induced cell death by BAPTA-AM” value in the data set with SSP-25 cells [4] (10 μM BAPTA-AM added to cells treated with 10 μM compound 10) is reported as “able to counteract the cell-death inducing effects of compound 10; also recorded: rescues cell death relative to compound alone; also recorded: rescues cell death due to compound 10”.
Take `N.N.N.N.N.N.N.N.N.N.N.N.N.N.[Cl-].[Cl-].[Cl-].[Cl-].[Cl-].[Cl-].[O-2].[O-2].[Ru+3].[Ru+3].[Ru+4]` [Ruthenium red, ammoniated ruthenium oxychloride]: the entries for the “rescue of compound 10-induced cell death by ruthenium red” value with SSP-25 cells [4] and with SSP-25 cells [4] (listed as ruthenium red) were “able to counteract the cell-death inducing effects of compound 10; also recorded: rescues cell death relative to compound alone” and “rescues cell death due to compound 10”, respectively.
